System: Lox-IMVI melanoma cell line
Test: Lox-IMVI anti-proliferative assay (growth inhibition, Cell Titer-Glo)
Assay type: cell-based, human
Details: Homo sapiens; IC50 activity level in the cell-based Lox-IMVI anti-proliferative assay; read-out: Activity
Protocol: Determination of the Growth Inhibitory Effect of Aminopurine Compounds. The Lox-IMVI melanoma cell line (Source: NCI-DCTD, catalog No. 0507283) was maintained and tested in RPMI+10% FBS. The seeding density for the cell line was optimized to ensure assay linearity in 384-well plates.
Increasing concentrations of Aminopurine Compound (0.5 nM to 10 μM) were spotted in a 10-point serial dilution fashion (3-fold dilution) in duplicate within the plate via an acoustic dispenser (EDC ATS-100) into an empty 384-well plate. The dimethyl sulfoxide (DMSO) concentration was kept constant for a final assay concentration of 0.2% DMSO. Prior to testing, cells were grown and expanded in culture flasks to provide sufficient amounts of starting material. Cells were then diluted to their desired densities and added directly to the compound-spotted 384-well plates. Cells were allowed to grow for 72 hours in 5% CO2 at 37° C. At the time when exposure of cells to compound began (t0), initial cell number was assessed via a viability assay (Cell Titer-Glo) by quantifying the level of luminescence generated by adenosine-5′-triphosphate (ATP) present in viable cells. After 72 hours, cell viability of compound-treated cells was assessed via Cell Titer-Glo Luminescent Cell Viability Assay (Promega Corporation, Madison, Wis.) and read for luminescence.
All data was normalized and represented as a percentage of the DMSO-treated control cells after 72 h. Results were expressed as a IC50 value, which is the compound concentration required to inhibit 50% of the untreated control cells during the 72 hours of treatment.
A Four Parameter Logistic Model (Sigmoidal Dose-Response Model) was used to determine the compound's IC50. y=(A+((B−A)/(1+((C/x)^D))))
wherein: • A=YMin • B=YMax • C=EC50 • D=Hill Slope • IC50 is the compound concentration when Y=50% of DMSO control • Y=Luminescence unit
All inhibition curves were processed and evaluated using XLFit and Activity Base (IDBS).

IC50	SMILES
250 to 500 nM	NC(=O)[C@H]1CC[C@@H](n2c(Nc3ccc(Cl)c(Cl)c3F)nc3cnc(NC4CCOCC4)nc32)CC1 [Example 112, (1s,4s)-4-(8-(3,4-dichloro-2-fluorophenylamino)-2-(tetrahydro-2H-pyran-4-ylamino)-9H-purin-9-yl)cyclohexanecarboxamide]
> 1000 nM	CC(C)(C)OC(=O)N1CCC[C@@H](Nc2ncc3nc(Nc4c(F)cc(F)cc4F)n([C@H]4CC[C@@H](C(N)=O)CC4)c3n2)C1 [Example 158, (R)-tert-butyl 3-(9-((1s,4S)-4-carbamoylcyclohexyl)-8-(2,4,6-trifluorophenylamino)-9H-purin-2-ylamino)piperidine-1-carboxylate]
> 1000 nM	NC(=O)[C@H]1CC[C@@H](n2c(Nc3cc(Cl)c(F)cc3F)nc3cnc(NC4CCOCC4)nc32)CC1 [Example 64, (1s,4s)-4-(8-(5-chloro-2,4-difluorophenylamino)-2-(tetrahydro-2H-pyran-4-ylamino)-9H-purin-9-yl)cyclohexanecarboxamide]
> 1000 nM	NC(=O)[C@H]1CC[C@@H](n2c(Nc3c(F)ccc(Cl)c3F)nc3cnc(NC4CCOCC4)nc32)CC1 [Example 67, (1s,4s)-4-(8-(3-chloro-2,6-difluorophenylamino)-2-(tetrahydro-2H-pyran-4-ylamino)-9H-purin-9-yl)cyclohexanecarboxamide]
250 to 500 nM	C[C@@H](CO)Nc1ncc2nc(Nc3c(Cl)cc(Cl)cc3Cl)n([C@H]3CC[C@@H](C(N)=O)CC3)c2n1 [Example 165, (1R,4s)-4-(2-((S)-1-hydroxypropan-2-ylamino)-8-(2,4,6-trichlorophenylamino)-9H-purin-9-yl)cyclohexanecarboxamide]
500 to 1000 nM	NC(=O)[C@H]1CC[C@@H](n2c(Nc3c(Cl)cc(F)cc3Cl)nc3cnc(NC4CCC4)nc32)CC1 [Example 118, (1s,4s)-4-(2-(cyclobutylamino)-8-(2,6-dichloro-4-fluorophenylamino)-9H-purin-9-yl)cyclohexanecarboxamide]
> 1000 nM	NC(=O)[C@H]1CC[C@@H](n2c(Nc3c(Cl)cccc3Cl)nc3cnc(N[C@H]4CCC[C@@H](O)C4)nc32)CC1 [Example 370, (1R,4s)-4-(8-(2,6-dichlorophenylamino)-2-((1S,3R)-3-hydroxycyclohexylamino)-9H-purin-9-yl)cyclohexanecarboxamide]
> 1000 nM	CC(C)(C)OC(=O)N1CCC[C@@H](Nc2ncc3nc(Nc4c(F)cccc4F)n([C@H]4CC[C@@H](C(N)=O)CC4)c3n2)C1 [Example 159, (R)-tert-butyl 3-(9-((1s,4S)-4-carbamoylcyclohexyl)-8-(2,6-difluorophenylamino)-9H-purin-2-ylamino)piperidine-1-carboxylate]
500 to 1000 nM	NC(=O)[C@H]1CC[C@@H](n2c(Nc3c(F)ccc(F)c3F)nc3cnc(NC4CCCC4)nc32)CC1 [Example 141, (1s,4s)-4-(2-(cyclopentylamino)-8-(2,3,6-trifluorophenylamino)-9H-purin-9-yl)cyclohexanecarboxamide]
< 250 nM	NC(=O)[C@H]1CC[C@@H](n2c(Nc3c(F)cc(Cl)cc3Cl)nc3cnc(NC4CCC(F)(F)CC4)nc32)CC1 [Example 186, (1s,4s)-4-(8-(2,4-dichloro-6-fluorophenylamino)-2-(4,4-difluorocyclohexylamino)-9H-purin-9-yl)cyclohexanecarboxamide]

Same assay, conditions: Homo sapiens; Lox-IMVI anti-proliferative assay, IC50 activity level; read-out: Activity

IC50	SMILES
> 1000 nM	NC(=O)[C@H]1CC[C@@H](n2c(Nc3c(Cl)cc(OC(F)(F)F)cc3Cl)nc3cnc(NC4CCC(F)(F)CC4)nc32)CC1 [Example 596, (1s,4s)-4-(8-(2,6-dichloro-4-(trifluoromethoxy)phenylamino)-2-(4,4-difluorocyclohexylamino)-9H-purin-9-yl)cyclohexanecarboxamide]
250 to 500 nM	NC(=O)[C@H]1CC[C@@H](n2c(Nc3c(Cl)cc(Cl)cc3Cl)nc3cnc(N[C@H]4CCC(F)(F)C4)nc32)CC1 [Example 594, (1R,4s)-4-(2-((S)-3,3-difluorocyclopentylamino)-8-(2,4,6-trichlorophenylamino)-9H-purin-9-yl)cyclohexanecarboxamide]
> 1000 nM	NC(=O)[C@H]1CC[C@@H](n2c(Nc3c(Cl)cc(Cl)cc3Cl)nc3cnc(N[C@H]4CCCC[C@H]4O)nc32)CC1 [Example 514, (1R,4s)-4-(2-((1S,2R)-2-hydroxycyclohexylamino)-8-(2,4,6-trichlorophenylamino)-9H-purin-9-yl)cyclohexanecarboxamide]
250 to 500 nM	C[C@@H](CO)Nc1ncc2nc(Nc3c(F)cc(F)cc3F)n([C@H]3CC[C@@](C)(C(N)=O)CC3)c2n1 [Example 546, (1R,4s)-4-(2-((S)-1-hydroxypropan-2-ylamino)-8-(2,4,6-trifluorophenylamino)-9H-purin-9-yl)-1-methylcyclohexanecarboxamide]

More lines, now with the values behind:

SMILES	IC50
CC[C@@H](CO)Nc1ncc2nc(Nc3c(Cl)cc(C#N)cc3Cl)n([C@H]3CC[C@@H](C(N)=O)CC3)c2n1 [Example 432, (1R,4s)-4-(8-(2,6-dichloro-4-cyanophenylamino)-2-((S)-1-hydroxybutan-2-ylamino)-9H-purin-9-yl)cyclohexanecarboxamide]	500 to 1000 nM
COC(=O)N1CCC[C@@H](Nc2ncc3nc(Nc4c(F)cc(Cl)cc4F)n([C@H]4CC[C@@H](C(N)=O)CC4)c3n2)C1 [Example 408, (R)-methyl 3-(9-((1s,4S)-4-carbamoylcyclohexyl)-8-(4-chloro-2,6-difluorophenylamino)-9H-purin-2-ylamino)piperidine-1-carboxylate]	500 to 1000 nM
C[C@H]1COCC[C@H]1Nc1ncc2nc(Nc3c(Cl)cc(Cl)cc3Cl)n([C@H]3CC[C@@H](C(N)=O)CC3)c2n1 [Example 501, (1S,4s)-4-(2-((3R,4R)-3-methyltetrahydro-2H-pyran-4-ylamino)-8-(2,4,6-trichlorophenylamino)-9H-purin-9-yl)cyclohexanecarboxamide]	250 to 500 nM
NC(=O)[C@H]1CC[C@@H](n2c(Nc3c(Cl)cc(C(F)(F)F)cc3Cl)nc3cnc(NC4CCOCC4)nc32)CC1 [Example 442, (1s,4s)-4-(8-(2,6-dichloro-4-(trifluoromethyl)phenylamino)-2-(tetrahydro-2H-pyran-4-ylamino)-9H-purin-9-yl)cyclohexanecarboxamide]	250 to 500 nM

Same assay, conditions: Homo sapiens; Lox-IMVI melanoma cell line, anti-proliferative assay; read-out: Activity (IC50 activity level)

IC50	SMILES
250 to 500 nM	N#Cc1cc(Cl)c(Nc2nc3cnc(N[C@H]4CCC[C@H](O)C4)nc3n2[C@H]2CC[C@@H](C(N)=O)CC2)c(Cl)c1 [Example 688, (1R,4s)-4-(8-(2,6-dichloro-4-cyanophenylamino)-2-((1S,3S)-3-hydroxycyclohexylamino)-9H-purin-9-yl)cyclohexanecarboxamide]
> 1000 nM	CC(C)N1CCC[C@@H](Nc2ncc3nc(Nc4c(F)cc(Cl)cc4F)n([C@H]4CC[C@@H](C(N)=O)CC4)c3n2)C1 [Example 740, (1S,4s)-4-(8-(4-chloro-2,6-difluorophenylamino)-2-((R)-1-isopropylpiperidin-3-ylamino)-9H-purin-9-yl)cyclohexanecarboxamide]
> 1000 nM	NC(=O)[C@H]1CC[C@@H](n2c(Nc3c(F)cc(F)cc3Cl)nc3cnc(NC4CCC(c5ncno5)CC4)nc32)CC1 (stereo partly shown) [Example 677, (1s,4s)-4-(2-(4-(1,2,4-oxadiazol-5-yl)cyclohexylamino)-8-(2-chloro-4,6-difluorophenylamino)-9H-purin-9-yl)cyclohexanecarboxamide]
500 to 1000 nM	CC1(C)COCC[C@H]1Nc1ncc2nc(Nc3c(Cl)cc(Cl)cc3Cl)n([C@H]3CC[C@@H](C(N)=O)CC3)c2n1 [Example 766, (1S,4s)-4-(2-((R)-3,3-dimethyltetrahydro-2H-pyran-4-ylamino)-8-(2,4,6-trichlorophenylamino)-9H-purin-9-yl)cyclohexanecarboxamide]
> 1000 nM	N#Cc1cc(Cl)c(Nc2nc3cnc(NC4CCC(c5ncno5)CC4)nc3n2[C@H]2CC[C@@H](C(N)=O)CC2)c(Cl)c1 (stereo partly shown) [Example 681, (1s,4s)-4-(2-(4-(1,2,4-oxadiazol-5-yl)cyclohexylamino)-8-(2,6-dichloro-4-cyanophenylamino)-9H-purin-9-yl)cyclohexanecarboxamide]
250 to 500 nM	C[C@]1(C(N)=O)CC[C@@H](n2c(Nc3c(F)cc(C#N)cc3Cl)nc3cnc(N[C@@H]4CCC[C@@H](O)C4)nc32)CC1 [Example 623, (1S,4s)-4-(8-(2-chloro-4-cyano-6-fluorophenylamino)-2-((1R,3R)-3-hydroxycyclohexylamino)-9H-purin-9-yl)-1-methylcyclohexanecarboxamide]
< 250 nM	C[C@]1(C(N)=O)CC[C@@H](n2c(Nc3c(F)cc(Cl)cc3Cl)nc3cnc(N[C@@H]4CC[C@@H](O)C4)nc32)CC1 [Example 637, (1S,4s)-4-(8-(2,4-dichloro-6-fluorophenylamino)-2-((1R,3R)-3-hydroxycyclopentylamino)-9H-purin-9-yl)-1-methylcyclohexanecarboxamide]

From patent publication US11590139B2, “Substituted aminopurine compounds, compositions thereof, and methods of treatment therewith” (Signal Pharmaceuticals, LLC, priority 2014, dated 2023)
